From ChEMBL document CHEMBL1142788, “Synthesis and antibacterial activity of alkyl derivatives of the glycopeptide antibiotic A40926 and their amides” (2005)
In brackets after ≈: the same amount, converted by molar mass.

Experiments:
Enterococcus faecium [1] = assay: Minimum inhibitory concentration against vancomycin-A Enterococcus faecium in the presence of 30% bovine serum (n=1) (range = 64>128mg/L); assay type: functional
Enterococcus faecalis [2] = assay: Minimum inhibitory concentration against vancomycin-sensitive Enterococcus faecalis in the presence of 30% bovine serum(n=3)(range = 0.5-1mg/l); assay type: functional
[3] = tested on: Staphylococcus epidermidis; assay: Minimum inhibitory concentration against methicillin-sensitive Staphylococcus epidermidis in the presence of 30% bovine serum; assay type: functional
[4] = tested on: Staphylococcus haemolyticus; assay: Minimum inhibitory concentration against Staphylococcus haemolyticus in the presence of 30% bovine serum; assay type: functional
Enterococcus faecalis [5] = assay: Minimum inhibitory concentration against vancomycin-A Enterococcus faecalis in the presence of 30% bovine serum (n=4); assay type: functional
[6] = tested on: Staphylococcus epidermidis; assay: Minimum inhibitory concentration against methicillin-resistant Staphylococcus epidermidis in the presence of 30% bovine serum; assay type: functional
Enterococcus faecium [7] = assay: Minimum inhibitory concentration against vancomycin-sensitive Enterococcus faecium in the presence of 30% bovine serum(n=1); assay type: functional
Staphylococcus aureus [8] = assay: Minimum inhibitory concentration against methicillin-resistant Staphylococcus aureus
Staphylococcus aureus [9] = assay: Minimum inhibitory concentration against methicillin-sensitive Staphylococcus aureus
Enterococcus faecalis [10] = assay: Minimum inhibitory concentration against vancomycin-sensitive Enterococcus faecalis in the presence of 30% bovine serum(n=3)(range = 0.125 - 0.16 mg/l); assay type: functional
Enterococcus faecalis [11] = assay: Minimum inhibitory concentration against vancomycin-A Enterococcus faecalis in the presence of 30% bovine serum (n=4) (Range = 0.125 - 16 mg/L); assay type: functional
Enterococcus faecium [12] = assay: Minimum inhibitory concentration against vancomycin-A Enterococcus faecium in the presence of 30% bovine serum (n=1); assay type: functional
Enterococcus faecalis [13] = assay: Minimum inhibitory concentration against vancomycin-sensitive Enterococcus faecalis in the presence of 30% bovine serum (n=3) (range = 0.125-0.5); assay type: functional
Enterococcus faecium [14] = assay: Minimum inhibitory concentration against vancomycin-A Enterococcus faecium in the presence of 30% bovine serum (n=1) (range = 0.125-128mg/l); assay type: functional
Enterococcus faecalis [15] = assay: Minimum inhibitory concentration against vancomycin-A Enterococcus faecalis (n=4) (range = 2-128mg/L)
Enterococcus faecium [16] = assay: Minimum inhibitory concentration against vancomycin-A Enterococcus faecium in the presence of 30% bovine serum (n=1) (range = 1>128mg/l); assay type: functional
Enterococcus faecalis [17] = assay: Minimum inhibitory concentration against vancomycin-A Enterococcus faecalis in the presence of 30% bovine serum(n=4) (range = 16>128mg/L); assay type: functional
Enterococcus faecalis [18] = assay: Minimum inhibitory concentration against vancomycin-sensitive Enterococcus faecalis in the presence of 30% bovine serum (n=3); assay type: functional
Enterococcus faecium [19] = assay: Minimum inhibitory concentration against vancomycin-A Enterococcus faecium in the presence of 30% bovine serum (n=1) (range = 2>128mg/l); assay type: functional
Enterococcus faecalis [20] = assay: Minimum inhibitory concentration against vancomycin-sensitive Enterococcus faecalis in the presence of 30% bovine serum (n=3) (range = 0.5-1mg/l); assay type: functional

Row | Structure (SMILES) | MIC (Enterococcus faecium [1]) [µg/mL] | MIC (Enterococcus faecalis [2]) [µg/mL] | MIC [3] [µg/mL] | MIC [4] [µg/mL] | MIC (Enterococcus faecalis [5]) [µg/mL] | MIC [6] [µg/mL] | MIC (Enterococcus faecium [7]) [µg/mL] | MIC (Staphylococcus aureus [8]) [µg/mL] | MIC (Staphylococcus aureus [9]) [µg/mL] | MIC (Enterococcus faecalis [10]) [µg/mL] | MIC (Enterococcus faecalis [11]) [µg/mL] | MIC (Enterococcus faecium [12]) [µg/mL] | MIC (Enterococcus faecalis [13]) [µg/mL] | MIC (Enterococcus faecium [14]) [µg/mL] | MIC (Enterococcus faecalis [15]) [µg/mL] | MIC (Enterococcus faecium [16]) [µg/mL] | MIC (Enterococcus faecalis [17]) [µg/mL] | MIC (Enterococcus faecalis [18]) [µg/mL] | MIC (Enterococcus faecium [19]) [µg/mL] | MIC (Enterococcus faecalis [20]) [µg/mL]
1 | CN(Cc1ccc2ccccc2c1)[C@H]1C(=O)N[C@@H]2Cc3ccc(cc3)Oc3cc4cc(c3O[C@@H]3OC(C(=O)O)C(O)[C@H](O)C3N)Oc3ccc(cc3Cl)[C@@H](O)C3NC(=O)[C@H](NC(=O)[C@@H]4NC(=O)[C@@H](NC2=O)c2cc(cc(O)c2Cl)Oc2cc1ccc2O)c1ccc(O)c(c1)-c1c(O[C@H]2O[C@H](CO)[C@@H](O)[C@H](O)[C@@H]2O)cc(O)cc1[C@@H](C(=O)O)NC3=O (stereo partly drawn) | > 128 | 1 | 16 | 128 | 128 | 32 | 1 | 2 (≈ 1.18 µM) | 2 (≈ 1.18 µM) |  |  |  |  |  |  |  |  |  |  | 
2 | CCCCCCOc1ccc(CNC2[C@H](Oc3c4cc5cc3Oc3ccc(cc3Cl)[C@@H](O)C3NC(=O)[C@H](NC(=O)[C@@H]5NC(=O)[C@H]5NC(=O)[C@@H](Cc6ccc(cc6)O4)NC(=O)[C@H](NC)c4ccc(O)c(c4)Oc4cc(O)c(Cl)c5c4)c4ccc(O)c(c4)-c4c(O[C@H]5O[C@H](CO)[C@@H](O)[C@H](O)[C@@H]5O)cc(O)cc4[C@@H](C(=O)NCCCN(C)C)NC3=O)OC(C(=O)NCCCN(C)C)C(O)[C@@H]2O)cc1OCC (stereo partly drawn) |  |  | < 0.125 | 2 |  |  | < 0.125 |  | < 0.125 | < 0.125 | < 16 | > 16 |  |  |  |  |  |  |  | 
3 | CCCCn1cc(CNC2[C@H](Oc3c4cc5cc3Oc3ccc(cc3Cl)[C@@H](O)C3NC(=O)[C@H](NC(=O)[C@@H]5NC(=O)[C@H]5NC(=O)[C@@H](Cc6ccc(cc6)O4)NC(=O)[C@H](N(C)Cc4cn(CCCC)c6ccccc46)c4ccc(O)c(c4)Oc4cc(O)c(Cl)c5c4)c4ccc(O)c(c4)-c4c(O[C@H]5O[C@H](CO)[C@@H](O)[C@H](O)[C@@H]5O)cc(O)cc4[C@@H](C(=O)NCCCN(C)C)NC3=O)OC(C(=O)NCCCN(C)C)C(O)[C@@H]2O)c2ccccc21 (stereo partly drawn) |  |  | 0.25 | 0.25 |  | 2 | 0.125 | 2 (≈ 0.957 µM) | 0.5 (≈ 0.239 µM) |  |  |  | < 0.5 | 128 | 128 (≈ 61.3 µM) |  |  |  |  | 
4 | CCCCn1cc(CNC2[C@H](Oc3c4cc5cc3Oc3ccc(cc3Cl)[C@@H](O)C3NC(=O)[C@H](NC(=O)[C@@H]5NC(=O)[C@H]5NC(=O)[C@@H](Cc6ccc(cc6)O4)NC(=O)[C@H](N(C)Cc4cn(CCCC)c6ccccc46)c4ccc(O)c(c4)Oc4cc(O)c(Cl)c5c4)c4ccc(O)c(c4)-c4c(O[C@H]5O[C@H](CO)[C@@H](O)[C@H](O)[C@@H]5O)cc(O)cc4[C@@H](C(=O)O)NC3=O)OC(C(=O)O)C(O)[C@@H]2O)c2ccccc21 (stereo partly drawn) |  |  | 4 | 64 |  | 32 | < 0.125 | 2 (≈ 1.04 µM) | 4 (≈ 2.08 µM) |  |  |  |  |  |  | > 128 | > 128 | 0.25 |  | 
5 | CN(Cc1c[nH]c2ccccc12)[C@H]1C(=O)N[C@@H]2Cc3ccc(cc3)Oc3cc4cc(c3O[C@@H]3OC(C(=O)O)C(O)[C@H](O)C3NCc3c[nH]c5ccccc35)Oc3ccc(cc3Cl)[C@@H](O)C3NC(=O)[C@H](NC(=O)[C@@H]4NC(=O)[C@@H](NC2=O)c2cc(cc(O)c2Cl)Oc2cc1ccc2O)c1ccc(O)c(c1)-c1c(O[C@H]2O[C@H](CO)[C@@H](O)[C@H](O)[C@@H]2O)cc(O)cc1[C@@H](C(=O)O)NC3=O (stereo partly drawn) |  |  | 64 | > 128 | 32 | 128 | 2 | 2 (≈ 1.11 µM) | 4 (≈ 2.21 µM) |  |  |  |  |  |  |  |  |  | > 128 | 1
